According to the supplement of paper PMC10627819:

Assays:
Test in all cases: fitness (endpoint OD595 vs no drug) (fraction); higher = more growth
S. aureus DSM 20231 = test system: S. aureus DSM 20231
How it was run: (§1)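 Bacterial growth was followed in 384-well plates seeded at OD595 0.01, with 30 µl per well, or 55 µl for S. pneumoniae, in TSB, LB Lennox or CY at 37 °C. OD595 was read every 30 min for 14 h, and each reading had the first reading subtracted as background. Fitness is the background-corrected optical density at entry into stationary phase divided by the robust mean of the no-drug control wells. This ratio is capped at 1.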

S. aureus Newman = test system: S. aureus Newman
How it was run: as §1

B. subtilis 168 = test system: B. subtilis 168
How it was run: as §1

S. pneumoniae D39V = test system: S. pneumoniae D39V
How it was run: as §1

N[C@@H]1CONC1=O [Cycloserine D] + CCN(CC)CCOC(=O)c1ccc(N)cc1 [Procaine]
fitness
Details	first compound 0.125 µg/mL	first compound 0.25 µg/mL	first compound 0.375 µg/mL	first compound 0.5 µg/mL	first compound 0.75 µg/mL	first compound 1.5 µg/mL
B. subtilis 168, partner 85.5 µg/mL	0.95	0.899	–	0.921	–	–
B. subtilis 168, partner 171 µg/mL	0.908	0.851	–	0.894	–	–
B. subtilis 168, partner 342 µg/mL	0.925	0.874	–	0.907	–	–
S. aureus DSM 20231, partner 85.5 µg/mL	–	–	0.979	–	0.982	0.981
S. aureus DSM 20231, partner 171 µg/mL	–	–	0.996	–	0.998	≥ 1
S. aureus DSM 20231, partner 342 µg/mL	–	–	≥ 1	–	0.966	≥ 1
S. aureus Newman, partner 85.5 µg/mL	–	–	≥ 1	–	≥ 1	≥ 1
S. aureus Newman, partner 171 µg/mL	–	–	0.993	–	≥ 1	≥ 1
S. aureus Newman, partner 342 µg/mL	–	–	≥ 1	–	≥ 1	≥ 1

N[C@@H]1CONC1=O [Cycloserine D] + O=C(O[C@@H]1Cc2c(O)cc(O)cc2O[C@@H]1c1cc(O)c(O)c(O)c1)c1cc(O)c(O)c(O)c1 [EGCG]
fitness
Details	partner 6.25 µg/mL	partner 12.5 µg/mL	partner 25 µg/mL	partner 50 µg/mL
B. subtilis 168, first compound 0.125 µg/mL	0.934	0.567	–	–
B. subtilis 168, first compound 0.25 µg/mL	0.898	–	0.289	–
B. subtilis 168, first compound 0.5 µg/mL	0.938	0.443	–	–
S. aureus DSM 20231, first compound 0.375 µg/mL	–	0.785	0.784	0.776
S. aureus DSM 20231, first compound 0.75 µg/mL	–	0.73	0.772	–
S. aureus DSM 20231, first compound 1.5 µg/mL	–	0.798	0.663	–
S. aureus Newman, first compound 0.375 µg/mL	–	0.77	0.765	0.691
S. aureus Newman, first compound 0.75 µg/mL	–	0.805	0.821	0.697
S. aureus Newman, first compound 1.5 µg/mL	–	0.851	0.779	0.706

N[C@@H]1CONC1=O [Cycloserine D] + C[C@@H]1O[C@@H]1P(=O)(O)O [Fosfomycin]
fitness
Details	first compound 0.125 µg/mL	first compound 0.25 µg/mL	first compound 0.375 µg/mL	first compound 0.5 µg/mL	first compound 0.75 µg/mL	first compound 1.5 µg/mL
B. subtilis 168, partner 1.562 µg/mL	0.71	0.666	–	0.679	–	–
B. subtilis 168, partner 3.124 µg/mL	0.608	0.583	–	0.592	–	–
B. subtilis 168, partner 6.248 µg/mL	0.479	0.504	–	0.453	–	–
S. aureus DSM 20231, partner 0.781 µg/mL	–	–	0.724	–	0.703	0.764
S. aureus DSM 20231, partner 1.562 µg/mL	–	–	0.586	–	0.577	0.597
S. aureus DSM 20231, partner 3.124 µg/mL	–	–	0.451	–	0.471	0.481
S. aureus Newman, partner 0.781 µg/mL	–	–	0.64	–	0.623	0.669
S. aureus Newman, partner 1.562 µg/mL	–	–	0.516	–	0.518	0.514
S. aureus Newman, partner 3.124 µg/mL	–	–	0.165	–	0.201	0.172

O=C(O[C@@H]1Cc2c(O)cc(O)cc2O[C@@H]1c1cc(O)c(O)c(O)c1)c1cc(O)c(O)c(O)c1 [EGCG] + CO[C@@]12[C@H](COC(N)=O)C3=C(C(=O)C(C)=C(N)C3=O)N1C[C@@H]1N[C@@H]12 [Mitomycin C]
fitness
Details	first compound 12.5 µg/mL	first compound 25 µg/mL	first compound 50 µg/mL
S. aureus DSM 20231, partner 0.0156 µg/mL	0.587	0.553	–
S. aureus DSM 20231, partner 0.0312 µg/mL	0.595	0.574	–
S. aureus DSM 20231, partner 0.0625 µg/mL	0.507	0.483	–
S. aureus Newman, partner 0.0156 µg/mL	0.541	0.611	0.628
S. aureus Newman, partner 0.0312 µg/mL	0.547	0.528	0.488
S. aureus Newman, partner 0.0625 µg/mL	0.457	0.397	0.459
S. pneumoniae D39V, partner 0.001075 µg/mL	0.877	0.9	0.926
S. pneumoniae D39V, partner 0.002 µg/mL	0.77	–	0.777
S. pneumoniae D39V, partner 0.00215 µg/mL	0.783	0.902	–
S. pneumoniae D39V, partner 0.004 µg/mL	0.793	0.685	0.646
S. pneumoniae D39V, partner 0.0043 µg/mL	–	0.747	0.881
S. pneumoniae D39V, partner 0.008 µg/mL	0.422	0.379	0.285

N[C@@H]1CONC1=O [Cycloserine D] + CN1C2=CC=CC=C2N=C3C1=CC=CC3=O [Pyocyanin]
fitness
Details	first compound 0.125 µg/mL	first compound 0.25 µg/mL	first compound 0.375 µg/mL	first compound 0.5 µg/mL	first compound 0.75 µg/mL	first compound 1.5 µg/mL
B. subtilis 168, partner 1.25 µg/mL	0.878	0.871	–	0.877	–	–
B. subtilis 168, partner 2.5 µg/mL	0.833	0.781	–	0.828	–	–
B. subtilis 168, partner 5 µg/mL	0.697	0.667	–	0.623	–	–
S. aureus DSM 20231, partner 1.25 µg/mL	–	–	0.983	–	0.985	0.962
S. aureus DSM 20231, partner 2.5 µg/mL	–	–	0.884	–	0.875	0.865
S. aureus DSM 20231, partner 5 µg/mL	–	–	0.826	–	0.855	0.777
S. aureus Newman, partner 1.25 µg/mL	–	–	0.85	–	0.856	0.868
S. aureus Newman, partner 2.5 µg/mL	–	–	0.8	–	0.764	0.826
S. aureus Newman, partner 5 µg/mL	–	–	0.457	–	0.378	0.42

N[C@@H]1CONC1=O [Cycloserine D] + Cc1onc(-c2ccccc2)c1C(=O)N[C@@H]1C(=O)N2[C@@H]1SC(C)(C)[C@@H]2C(=O)O [Oxacillin]
fitness
Details	first compound 0.125 µg/mL	first compound 0.25 µg/mL	first compound 0.375 µg/mL	first compound 0.5 µg/mL	first compound 0.75 µg/mL	first compound 1.5 µg/mL
B. subtilis 168, partner 0.002 µg/mL	0.973	0.926	–	0.906	–	–
B. subtilis 168, partner 0.004 µg/mL	0.966	0.887	–	0.9	–	–
B. subtilis 168, partner 0.008 µg/mL	0.936	0.892	–	0.907	–	–
S. aureus DSM 20231, partner 0.0156 µg/mL	–	–	0.878	–	0.906	0.931
S. aureus DSM 20231, partner 0.0312 µg/mL	–	–	0.67	–	0.712	0.656
S. aureus DSM 20231, partner 0.0625 µg/mL	–	–	0.506	–	0.499	0.494
S. aureus Newman, partner 0.0156 µg/mL	–	–	0.819	–	0.779	0.771
S. aureus Newman, partner 0.0312 µg/mL	–	–	0.716	–	0.663	0.642
S. aureus Newman, partner 0.0625 µg/mL	–	–	0.611	–	0.611	0.579

fitness, B. subtilis 168, one replicate
Details	partner 0.0078 µg/mL	partner 0.0155 µg/mL	partner 0.031 µg/mL	partner 0.075 µg/mL	partner 0.15 µg/mL	partner 0.3 µg/mL
first compound 0.125 µg/mL	0.99	0.909	0.873	0.526	0.0465	0.0536
first compound 0.25 µg/mL	0.937	0.966	0.88	0.596	0.0158	0.0367
first compound 0.5 µg/mL	0.973	≥ 1	0.973	0.459	0.0287	0.0208
